Experiment [1] relates to MRSA. The experiment is described as follows: MIC of a compound of the invention and ampicillin, alone and in combination. It is filed as cell-based. An excerpt:
Compounds of the invention can increase the potency of antibiotics. […] The ability of compounds of the invention to synergize with structurally and mechanistically unrelated antibiotics can be a result of the inhibition of bacterial efflux.

Another experiment relates to VRE. The experiment is described as follows: MIC against VRE. It is filed as cell-based, Enterococcus faecalis. On the procedure:
In a 12×75 mm borosilicate glass culture tube, 1 mL of cell suspension was added. Then, compound 7 was added to the cells, and the samples were mixed using a vortex mixer. […] The samples were incubated overnight at 37° C. on a rotary shaking incubator at 100 rpm.

In experiment [2] the test system is MES-SA/Dx5 (human uterine sarcoma grown in presence of doxorubicin). Kind of experiment: Light-activated killing of cell lines (IC50 with/without light). It is filed as cell-based. The note with it: Homo sapiens. On the procedure:
(§1) TABLE 15 depicts the IC50 of compounds in the presence or absence of light for human cell lines. The cell lines used were HeLa (human cervical adenocarcinoma), U-87 MG (human brain gliobastoma), MES-SA (human uterine sarcoma), MES-SA/D×5 (human uterine sarcoma grown in presence of doxorubicin), NCI-H441 (human lung papillary adenocarcinoma), A549 (human lung carcinoma), WI-38 (human embryonic lung normal), MCF7 (human breast adenocarcinoma), SW1088 (human brain astrocytoma), B16F10 (mouse skin melanoma), NIH-3T3 (mouse fibroblast), and Jurkat (human lymphoblastoma). “1-Sol” in TABLE 15 was generated by dissolving compound 1 and potassium hydroxide at a 1:1 ratio in a DMSO/water solution. The cells were irradiated with continuous white light using a LumaCare™ light source for 2 minutes at a distance of 6.5 cm from the cells.

For experiment [3], the system named is U-87 MG (human brain gliobastoma). Described as above. It is filed as cell-based. On the procedure:
as §1

The test system of experiment [4] is MRSA. The experiment is described as follows: Minimum bactericidal concentration (MBC) with and without white light. The settings on record: Staphylococcus aureus, light or radiation study. It is filed as cell-based, S. aureus. On the procedure:
The bacterial media was inoculated with bacteria and incubated overnight. The bacterial cultures were diluted to 5×10^8 CFU/mL using a McFarland latex turbidity standard (0.5). Compound 1 was diluted with sterile DMSO, which was added to the cell suspension in glass culture tubes. The cells were then incubated for 30 minutes at 37° C. on a rotary shaking incubator at 150 rpm. 500 μL of the treated cell suspension was added to a well on a sterile ceramic drop plate. Non-coherent white light from a Lumacare™ LC-122 unit was used to irradiate the samples. The end of the light probe was placed 3 cm above the sample well, perpendicular to the surface of the sample, and light was applied for 2 minutes (15 seconds light, 15 seconds dark). 200 μL of the irradiated sample was transferred to a 96-well plastic microtiter plate and five ten-fold dilutions were made in the media. 10 μL of each dilution was dripped onto an agar media plate and was allowed to streak down the plate by tilting the plate down. The agar plates were incubated at 37° C. overnight and colony counts were performed to calculate the CFU/mL.
TABLE 14 details the MBC values of compounds 1-6 against MRSA with and without irradiation with white light. Irradiation involved treatment with a LumaCare™ light source at 3 cm from media for 1 min.

Experiment [5] has as its system S. aureus (ATCC 29213). The experiment is described as follows: microbe, parasite or virus in culture. The settings on record: for MIC: Staphylococcus aureus. It is filed as cell-based. On the procedure: Each mixture was incubated at 37° C. on a rotary shaking incubator for about 16 hours. MTT was then added to assess the viability of the cells (at 10% well volume). […] The cells were then streaked onto a TSA plate and incubated overnight at 37° C. These steps were repeated to reach a total of 30 exposures.

Experiment [6] has as its system S. aureus (ATCC 29213). The experiment is described as follows: MIC against drug sensitive S. aureus. It is filed as cell-based. The settings on record: Staphylococcus aureus.
Experiment [7] in a line: MIC against MRSA isolates. It is filed as cell-based, S. aureus. The note with it: Staphylococcus aureus. On the procedure: The MICs of S. aureus ATCC 33591, BAA-44, BAA-1707, BAA-1717, BAA-1720, BAA-1747, BAA-1754, BAA-1761, BAA-1763, BAA-1764, and BAA-1766 were measured using a cell concentration of about 5×10^5 colony forming units (CFU)/mL. In a 96-well microtiter plate, two-fold dilutions were made of each drug (starting with 100 μM) in 100 μL of a cell suspension in trypticase soy broth (TSB). The samples were incubated overnight at 37° C. on a rotary shaking incubator set at 100 revolutions per minute (rpm) and were visually inspected for turbidity. A 20% well-volume of 3-(4,5-dimethylthiazol-2-yl)-2,5-diphenyltetrazolium bromide (MTT reagent, 5 mg/mL) was added, and the samples were incubated for about 20 minutes. The MICs were determined as the lowest concentration at which full visual inhibition was observed by the unaided eye.

Where [8] appears, read: Enterococcus, TABLE 23, read-out: VRE MIC.
The mark [9] stands for this setting: ATCC29213, read-out: Final MIC Apr. 16, 2015.
[10] abbreviates: ATCC29213, read-out: Initial MIC Mar. 10, 2015.
Setting [11] is: ATCC29213, ATCC 29213, read-out: S. aureus MIC.
The mark [12] stands for this setting: antibiotics, MRSA isolate ATCC 33591.
The mark [13] stands for this setting: antibiotics, MRSA isolate ATCC BAA-44.
Where [14] appears, read: antibiotics, MRSA isolate ATCC BAA-1707.
Where [15] appears, read: antibiotics, MRSA isolate ATCC BAA-1717.
Setting [16] is: antibiotics, MRSA isolate ATCC BAA-1720.
The mark [17] stands for this setting: antibiotics, MRSA isolate ATCC BAA-1747.
Where [18] appears, read: antibiotics, MRSA isolate ATCC BAA-1754.
[19] abbreviates: antibiotics, MRSA isolate ATCC BAA-1761.
Where [20] appears, read: antibiotics, MRSA isolate ATCC BAA-1763.
Setting [21] is: antibiotics, MRSA isolate ATCC BAA-1764.
The mark [22] stands for this setting: antibiotics, MRSA isolate ATCC BAA-1766.
[23] abbreviates: read-out: MRSA MIC, MRSA (ATCC BAA-44), TABLE 21.

5 molecules from patent US9834514B2, “Antibiotic sensitivity-restoring and photosensitive agents” (New Mexico Tech Research Foundation, priority 2015, dated 2017) can be followed below.

Structures are written as SMILES. Converted amounts (≈) assume the structure as drawn. Like-named read-outs stand apart in the source and are kept apart here.

For the molecule `CC1(C)S[C@@H]2[C@H](NC(=O)[C@H](N)c3ccccc3)C(=O)N2[C@H]1C(=O)O` [Ampicilin, ampicillin], the “fold decrease in concentration in combination” value in the experiment on MRSA [1] (combination versus alone) was 8 fold. Also, the “concentration needed for full killing in combination” value in the experiment on MRSA [1] (compound used in combination with ampicillin) is on record as “about 572 μM”. In the experiment with MRSA [1] (single agent), the “mean inhibitory concentration (MIC), alone” value is “about 4579 μM”. Further, in the experiment on VRE (TABLE 24), the S/R result is “S”. Further, the MIC with VRE (common antibiotics, TABLE 24) was 2 to 4 mg/L.
With `Fc1ccc(/C=C/c2[nH]c3ccccc3c2/C=C/c2ccc(F)cc2)cc1` [Compound 4], the IC50 in experiment [2] (MES-SA/Dx5, 2 min, MES-SA/Dx5 (no doxorubicin), white light 2 minutes, read-out: Compound + light IC50) came to 1.31 ± 0.51 µM; in experiment [2] (MES-SA/Dx5, 2 min, MES-SA/Dx5 + doxorubicin, white light 2 minutes, read-out: Compound + light IC50), 0.67 ± 0.01 µM; in experiment [2] (MES-SA/Dx5, MES-SA/Dx5 (no doxorubicin), no light, read-out: Compound IC50), 57.2 ± 10.3 µM; in experiment [2] (MES-SA/Dx5, MES-SA/Dx5 + doxorubicin, no light, read-out: Compound IC50), 40.9 ± 1.36 µM; in experiment [3] (2 min, white light 2 minutes, read-out: Compound + light IC50), 1.01 ± 0.16 µM; in experiment [3] (no light, read-out: Compound IC50), 42.6 ± 5.53 µM. Also, the minimum bactericidal concentration (MBC) was 0.5 µM (≈ 0.179 µg/mL) in the experiment on MRSA [4] (1 min, LumaCare light source at 3 cm from media for 1 min, read-out: MBC with irradiation) and 100 µM (≈ 35.7 µg/mL) in the experiment on MRSA [4] (no irradiation, read-out: MBC in the dark).
For `CCn1cc(C(=O)O)c(=O)c2cc(F)c(N3CCNCC3)cc21` [Norfloxacin, reference compound], the MIC is 2.5 mg/L (≈ 7.83 µM) with VRE (setting [8]); 1 mg/L (≈ 3.13 µM) with VRE (Enterococcus, common antibiotics, TABLE 24, read-out: MIC); above 16 µM with S. aureus (ATCC 29213) [5] (setting [9]); 2 µM (≈ 0.639 µg/mL) in the experiment on S. aureus (ATCC 29213) [5] (setting [10]); 1.25 to 2.5 mg/L (≈ 3.91 to 7.83 µM) with S. aureus (ATCC 29213) [6] (setting [11]); 100 mg/L (≈ 313 µM) in experiment [7] (MRSA (ATCC BAA-44), TABLE 21, read-out: MRSA MIC). For the same molecule, the MIC in experiment [7] (antibiotics, MRSA isolate ATCC 33591, read-out: MIC) is 25 mg/L (≈ 78.3 µM); in experiment [7] (antibiotics, MRSA isolate ATCC BAA-44, read-out: MIC), 100 mg/L (≈ 313 µM); in experiment [7] (antibiotics, MRSA isolate ATCC BAA-1707, read-out: MIC), below 3.1 mg/L; in experiment [7] (antibiotics, MRSA isolate ATCC BAA-1720, read-out: MIC) it was above 100 mg/L; in experiment [7] (antibiotics, MRSA isolate ATCC BAA-1747, read-out: MIC) it was 6.3 mg/L (≈ 19.7 µM); in experiment [7] (antibiotics, MRSA isolate ATCC BAA-1754, read-out: MIC) it was below 3.1 mg/L. The MIC was above 100 mg/L in experiment [7] (antibiotics, MRSA isolate ATCC BAA-1761, read-out: MIC); above 100 mg/L in experiment [7] (antibiotics, MRSA isolate ATCC BAA-1763, read-out: MIC); below 3.1 mg/L in experiment [7] (antibiotics, MRSA isolate ATCC BAA-1764, read-out: MIC); below 3.1 mg/L in experiment [7] (antibiotics, MRSA isolate ATCC BAA-1766, read-out: MIC). Further, the S/R entry in the experiment on VRE (TABLE 24) is “S”. The “Resistance Evolved” value with S. aureus (ATCC 29213) [5] is on record as “Yes”.
Consider `Cc1onc(-c2ccccc2)c1C(=O)N[C@@H]1C(=O)N2[C@@H]1SC(C)(C)[C@@H]2C(=O)O` [Oxacillin, reference compound], for which the MIC is 20 to 40 mg/L (≈ 49.8 to 99.6 µM) with VRE (setting [8]); above 8 µM in the experiment on S. aureus (ATCC 29213) [5] (setting [9]); 0.25 µM (≈ 0.1 µg/mL) in the experiment with S. aureus (ATCC 29213) [5] (setting [10]); 0.5 mg/L (≈ 1.25 µM) with S. aureus (ATCC 29213) [6] (setting [11]); above 100 mg/L in experiment [7] (setting [12]); 400 mg/L (≈ 996 µM) in experiment [7] (setting [13]). Besides, the MIC was below 3.1 mg/L in experiment [7] (setting [14]); 200 mg/L (≈ 498 µM) in experiment [7] (setting [15]); above 100 mg/L in experiment [7] (setting [16]); 6.3 mg/L (≈ 15.7 µM) in experiment [7] (setting [17]); 50 mg/L (≈ 125 µM) in experiment [7] (setting [18]); 6.3 mg/L (≈ 15.7 µM) in experiment [7] (setting [19]). In addition, the MIC in experiment [7] (setting [20]) was 50 mg/L (≈ 125 µM); in experiment [7] (setting [21]) it was 25 mg/L (≈ 62.3 µM); in experiment [7] (setting [22]) it was below 6.3 mg/L; in experiment [7] (setting [23]), 400 mg/L (≈ 996 µM). In addition, the “Resistance Evolved” value in the experiment on S. aureus (ATCC 29213) [5] is recorded as “Yes”.
Consider `CN[C@H](CC(C)C)C(=O)N[C@H]1C(=O)N[C@@H](CC(N)=O)C(=O)N[C@H]2C(=O)N[C@H]3C(=O)N[C@H](C(=O)N[C@H](C(=O)O)c4cc(O)cc(O)c4-c4cc3ccc4O)[C@H](O)c3ccc(c(Cl)c3)Oc3cc2cc(c3O[C@@H]2O[C@H](CO)[C@@H](O)[C@H](O)[C@H]2O[C@H]2C[C@](C)(N)[C@H](O)[C@H](C)O2)Oc2ccc(cc2Cl)[C@H]1O` [Vancomycin, reference compound], for which the MIC against VRE (Enterococcus) is 64 mg/L (≈ 44.2 µM); in the experiment with VRE (Enterococcus, read-out: VRE MIC), above 40 mg/L; with S. aureus (ATCC 29213) [6] (ATCC29213, read-out: S. aureus MIC), 2 mg/L (≈ 1.38 µM); in experiment [7] (setting [12]), below 3.1 mg/L; in experiment [7] (setting [13]), 3.1 mg/L (≈ 2.14 µM); in experiment [7] (setting [14]) it was below 3.1 mg/L. For the same molecule, the MIC was below 1.6 mg/L in experiment [7] (setting [15]); below 3.1 mg/L in experiment [7] (setting [16]); below 3.1 mg/L in experiment [7] (setting [17]); below 3.1 mg/L in experiment [7] (setting [18]); below 3.1 mg/L in experiment [7] (setting [19]); below 3.1 mg/L in experiment [7] (setting [20]). Besides, the MIC in experiment [7] (setting [21]) was below 3.1 mg/L; in experiment [7] (setting [22]), below 3.1 mg/L; in experiment [7] (setting [23]), 3.12 mg/L (≈ 2.15 µM). Moreover, the S/R entry in the experiment with VRE (TABLE 24) is reported as “R”.
